Laboratory results published in patent US20030236399A1, “Method of improving the quality of taste of natural sweetner” (Shangdong Hua Xian Stevia Co., Ltd., priority 2002, published 2003).

How the values were obtained:
[1] = background statement; cited from earlier work
[2] = Dissolving under ambient temperature, before and after the process; type: physicochemical
Text: Comparisons have been made between the natural sweetener before and after the process of the present invention and the results are illustrated as follow: […]

[3] = high temperature, high acidity and high alkalinity; cited from earlier work

Solubility under ambient temperature ([2]; Sweetness equivalent to 5% sucrose solution)	Solubility under ambient temperature ([2]; Sweetness equivalent to 10% sucrose solution)	Solubility under ambient temperature ([2]; Sweetness equivalent to 15% sucrose solution)	Molecule	Sweetness level relative to sucrose [1]	Stability of structure [3]
insoluble under ambient	insoluble under ambient		C=C1C[C@@]23CC[C@H]4[C@@](C)(CCC[C@@]4(C)C(=O)O[C@@H]4O[C@H](CO)[C@@H](O)[C@H](O)[C@H]4O)[C@@H]2CC[C@]1(O[C@@H]1O[C@H](CO)[C@@H](O)[C@H](O)[C@H]1O[C@@H]1O[C@H](CO)[C@@H](O)[C@H](O)[C@H]1O)C3 [stevioside]	200-300 times higher than that of sucrose	stable in structure
		taste, easy to dissolve under	α-glycosyl stevioside		
